{"source": "patent US8986667B2", "about": "“Cosmetic composition with skin tightening effect” (LVMH Recherche, priority 2001, dated 2015)", "tested_on": "human skin", "test": "Kinetics of penetration of caffeine through thawed human skin mounted on Franz cells", "format": "in vitro ADME", "conditions": "receptor liquid", "from_the_text": "This study is made, in vitro, on human skin, which is kept beforehand by freezing, with the aim of evaluating the influence of the mixture according to the invention on the penetration and the distribution of caffeine within the skin beds. The occlusive properties of a gel according to the invention lead the research of an eventual patch effect. This study is made in comparison with a Carbopol gel.\nThe principle of the study is based on the evaluation of the diffusion of an active principle through the thawed human skin which is mounted on Franz cells.\nThese cells are constituted of two glass elements which delimit an upper partition and a lower partition, and they have an exposed surface area of […]. The skin is placed between these two elements, stratum corneum to the top. The active principle deposited on the skin crosses it and is collected in the lower partition, dissolved in a solution which is known as the receptor solution and which is constituted of a phosphate buffer+Na nitride (0.1%) mixture. […]\nThe kinetics of penetration, in μg/cm^2 per unit time, is expressed as a function of the interval of confidence, the IC95%, wherein the residual standard deviation is calculated by the ANOVA method over the whole of the tests. […]"}
{"smiles": "Cn1c(=O)c2c(ncn2C)n(C)c1=O", "note": "[caffeine]", "values": [{"measurement": "maximum concentration of caffeine collected during the study", "result": "less than 23 μg/mL"}]}
